Experimental data taken from patent US5138069A (E. I. Du Pont de Nemours and Company, priority 1988, dated 1992).
pIC50: −log10 of the molar value. Read-outs that look alike come from different tables or passages of the source. Blank lines part the entries; values can stand above or below the compound they belong to.

How the values were obtained:
AII receptor = assay: Angiotensin II receptor binding (displacement of 3H-AII); details: read-out: Angiotensin II Receptor Binding IC50, rat adrenal cortical microsomes, 2 nM 3H-AII, 1 hour, room temperature
Procedure: The assay was carried out according to the method described by [Glossmann et al., J. Biol. Chem., 249, 825 (1974)], but with some modifications. The reaction mixture contained rat adrenal cortical microsomes (source of AII receptor) in Tris buffer and 2 nM of ^3 H-AII with or without potential AII antagonist. This mixture was incubated for 1 hour at room temperature and the reaction was subsequently terminated by rapid filtration and rinsing through glass micro-fibre filter. Receptor-bound ^3 H-AII trapped in filter was quantitated by scintillation counting.
(§1) Compounds listed in Table 26 were tested in the same manner as described for Table 25, except that in the test for antihypertensive effects in renal hypertensive rats, the compounds were administered orally at 30 mg/kg and intravenously at 3 mg/kg.

Renal Hypertensive Rats = assay: Antihypertensive effects in renal hypertensive rats; type: in vivo; details: Rattus norvegicus, Table 25; for minimal effective dose at 10 mg/kg: intravenous, 10 mg/kg or less; for minimal effective dose at 100 mg/kg: oral, 100 mg/kg or less
Procedure: This procedure increases blood pressure by increasing renin production with consequent elevation of AII levels. Compounds are administered orally at 100 mg/kg and/or intravenously via a cannula in the jugular vein at 10 mg/kg. Arterial blood pressure is continuously measured directly through a carotid artery cannula and recorded using a pressure transducer and a polygraph. Blood pressure levels after treatment are compared to pretreatment levels to determine the antihypertensive effects of the compounds (See Table 25).
as §1

[1] = Table 25, tested as sodium salt

Compound: CCCCc1nc(Cl)c(CC(=O)OC)n1Cc1ccc(NC(=O)[C@@H]2CCCC[C@@H]2NS(=O)(=O)C(F)(F)F)cc1 (relative stereo) [Example 74 (cis compound), methyl 2-butyl-4-chloro-1-[4-(cis-2-(trifluoromethanesulfonamido)cyclohexanecarboxamido)benzyl]imidazole-5-acetate]
- pIC50 (AII receptor; Table 25): 5.35
- minimal effective dose at 10 mg/kg (Renal Hypertensive Rats): < 10 mg/kg
- minimal effective dose at 100 mg/kg (Renal Hypertensive Rats): > 100 mg/kg

Compound: CCCCc1nc(Cl)c(CC(=O)OC)n1Cc1ccc(NC(=O)[C@@H]2CCCC[C@H]2NS(=O)(=O)C(F)(F)F)cc1 (relative stereo) [Example 74 (trans compound), Methyl 2-butyl-4-chloro-1-[4-(trans-2-(trifluoromethanesulfonamido)cyclohexanecarboxamido)benzyl]imidazole-5-acetate]
- pIC50 (AII receptor; Table 25): 5.41
- minimal effective dose at 10 mg/kg (Renal Hypertensive Rats): < 10 mg/kg
- minimal effective dose at 100 mg/kg (Renal Hypertensive Rats): > 100 mg/kg

Compound: CCCCc1nc(Cl)c(CC(C)C(=O)N[C@H](C)c2ccccc2)n1Cc1ccc(NC(=O)c2ccccc2C(=O)O)cc1 (single isomer, unassigned) [Example 239, d and l 3-[1-(4-(2-Carboxybenzamido)benzyl-2-butyl-4-chloroimidazol-5-yl]-2-methylpropanoic acid, d-(+)-α-methylbenzylamide]
- pIC50 (AII receptor; Table 25): 6.92

Compound: CCCCc1nc(Cl)c(CC(=O)OC)n1Cc1ccc(NC(=O)c2ccccc2-c2ccccc2C(=O)O)cc1 [Example 5]
- pIC50 (AII receptor; [1]): 6.72
- minimal effective dose at 100 mg/kg (Renal Hypertensive Rats; tested as sodium salt): > 100 mg/kg

Compound: CCCCc1nc(Cl)c(CC(=O)OC)n1Cc1ccc(NC(=O)/C=C\C(=O)O)cc1 [Example 6]
- pIC50 (AII receptor; Table 25): 5.24

Compound: CCCCc1nc(Cl)c(CC(=O)OC)n1Cc1ccc(NC(=O)c2c(C(=O)O)cccc2[N+](=O)[O-])cc1 [Example 7]
- pIC50 (AII receptor; Table 25): 6.38
- minimal effective dose at 10 mg/kg (Renal Hypertensive Rats): < 10 mg/kg
- minimal effective dose at 100 mg/kg (Renal Hypertensive Rats): > 100 mg/kg

Compound: CCCCc1nc(Cl)c(COC(C)=O)n1Cc1ccc(NC(=O)c2ccccc2C(=O)O)cc1 [Example 10]
- pIC50 (AII receptor; [1]): 6.72

Compound: CCCCc1nc(Cl)c(CC(=O)OC)n1Cc1ccc(NC(=O)c2c(Cl)ccc(Cl)c2C(=O)O)cc1 [Example 16]
- pIC50 (AII receptor; Table 25): 7.74
- minimal effective dose at 10 mg/kg (Renal Hypertensive Rats): < 10 mg/kg
- minimal effective dose at 100 mg/kg (Renal Hypertensive Rats): > 100 mg/kg

Compound: CCCCc1nc(Cl)c(COC(C)=O)n1Cc1ccc(C(=O)O)cc1 [Example 20, 5-Acetoxymethyl-2-butyl-1-(4-carboxybenzyl)-4-chloroimidazole]
- pIC50 (AII receptor; [1]): 5.28

Compound: CCCCc1nc(Cl)c(CC(=O)OC)n1Cc1ccc(NS(=O)(=O)C(F)(F)F)cc1 [Example 21, Methyl 2-butyl-4-chloro-1-[4-(trifluoromethylsulfonamido)benzyl]imidazole-5-acetate]
- pIC50 (AII receptor; [1]): 5.68
- minimal effective dose at 10 mg/kg (Renal Hypertensive Rats; tested as sodium salt): < 10 mg/kg
- minimal effective dose at 100 mg/kg (Renal Hypertensive Rats; tested as sodium salt): > 100 mg/kg

Compound: CCCCc1nc(Cl)c(CC(=O)O)n1Cc1ccc(NS(=O)(=O)C(F)(F)F)cc1 [Example 25]
- pIC50 (AII receptor; Table 25): 5.41

Compound: CCCCc1nc(Cl)c(CC(=O)O)n1Cc1ccc(NC(=O)c2ccccc2C(=O)O)cc1 [Example 32, 2-Butyl-1-[4-(2-carboxybenzamido)-benzyl]-4-chloroimidazole-5-acetic acid]
- pIC50 (AII receptor; [1]): 6.37

Compound: COCCc1nc(Cl)c(CO)n1Cc1ccc(NC(=O)c2ccccc2NS(=O)(=O)C(F)(F)F)cc1 [Example 56, 4-Chloro-5-hydroxymethyl-2-(2-methoxyethyl)-1-[4-((N-trifluoromethanesulfonyl)anthranilamido)benzyl]imidazole]
- pIC50 (AII receptor; Table 25): 5.36

Compound: CCCCc1nc(Cl)c(COC)n1Cc1ccc(C(=O)N[C@@H](Cc2ccccc2)C(=O)O)cc1 [Example 82]
- pIC50 (AII receptor; Table 25): 5.21

Compound: CCCCc1nc(Cl)c(COC)n1Cc1ccc(C(=O)N2CCC[C@H]2C(=O)O)cc1 [Example 83]
- pIC50 (AII receptor; Table 25): 5.19

Compound: CCc1nc(Cl)c(CO)n1Cc1ccc(-c2ccccc2C(=O)O)cc1 [Example 107]
- pIC50 (AII receptor; Table 25): 5.77

Compound: CCCc1nc(C(F)(F)C(F)(F)F)c(CO)n1Cc1ccc(-c2ccccc2-c2nn[nH]n2)cc1 [Example 124F]
- pIC50 (AII receptor; Table 26): 9.00

Compound: CCCCc1nc(Cl)c(CN=[N+]=[N-])n1Cc1ccc(C(=O)c2ccccc2C(=O)O)cc1 [Example 206]
- pIC50 (AII receptor; [1]): 5.85

Compound: CCCCc1nc(Cl)c(/C=C/CO)n1Cc1ccc(NC(=O)c2ccccc2C(=O)O)cc1 [Example 241]
- pIC50 (AII receptor; Table 25): 6.77

Compound: CCCCc1nc(C#N)c(C(N)=O)n1Cc1ccc(-c2ccccc2-c2nnn[nH]2)cc1 [Example 342, 2-n-Butyl-5-carboxamido-4-cyano-1-[(2'-(1H-tetrazol-5-yl)biphenyl-4-yl)methyl]imidazole]
- pIC50 (AII receptor; Table 26): 7.43

Compound: CCCCc1nc(Cl)c(CN2CCN(c3ccccc3OC)CC2)n1Cc1ccc(-c2ccccc2-c2nnn[nH]2)cc1 [Example 354, 2-n-Butyl-4-chloro-5-[(4-(2-methoxyphenyl)piperazin-1-yl)methyl]-1-[(2'-(1H-tetrazol-5-yl)biphenyl-4-yl)methyl]imidazole]
- pIC50 (AII receptor; Table 25): 6.46
- pIC50 (AII receptor; Table 26): 6.46

Further lines, with some results ahead:

- pIC50 (AII receptor; Table 25): 5.36
Compound: CCCCc1nc(CO)c(Cl)n1Cc1ccc(-c2occc2C(=O)O)cc1 (single isomer, unassigned) [Example 179, 2-n-butyl-1-[4-(3-carboxyfuran-2-yl)benzyl]-5-chloro-4-(hydroxymethyl)imidazole]
- minimal effective dose at 10 mg/kg (Renal Hypertensive Rats): < 10 mg/kg
- minimal effective dose at 100 mg/kg (Renal Hypertensive Rats): > 100 mg/kg

- pIC50 (AII receptor; Table 25): 6.96
Compound: CCCCc1nc(Cl)c(CC(C)C(=O)N[C@H](C)c2ccccc2)n1Cc1ccc(NC(=O)c2ccccc2C(=O)O)cc1 (single isomer, unassigned) [Example 238, d and l 3-[1-(4-(2-Carboxybenzamido)benzyl-2-butyl-4-chloroimidazol-5-yl]-2-methylpropanoic acid, d-(+)-α-methylbenzylamide]
- minimal effective dose at 10 mg/kg (Renal Hypertensive Rats): < 10 mg/kg
- minimal effective dose at 100 mg/kg (Renal Hypertensive Rats): > 100 mg/kg

- pIC50 (AII receptor; [1]): 6.38
Compound: CCCCc1nc(CC(=O)OC)c(Cl)n1Cc1ccc(NC(=O)c2ccccc2C(=O)O)cc1 [Example 3, Methyl 2-butyl-1-[4-(2-carboxybenzamido)benzyl]-5-chloroimidazole-4-acetate]
- minimal effective dose at 100 mg/kg (Renal Hypertensive Rats; tested as sodium salt): > 100 mg/kg

- pIC50 (AII receptor; [1]): 5.24
Compound: CCCCc1nc(Cl)c(CC(=O)OC)n1Cc1ccc(NC(=O)c2cc3ccccc3cc2C(=O)O)cc1 [Example 9]

- pIC50 (AII receptor; Table 25): 5.10
Compound: CCCCc1nc(Cl)c(CO)n1Cc1ccc(N2C(=O)c3ccccc3C2=O)cc1 [Example 28, 2-Butyl-4-chloro-5-hydroxymethyl-1-(4-N-phthalimidobenzyl)imidazole]

- pIC50 (AII receptor; Table 25): 6.19
Compound: CCCCc1nc(Cl)c(CC(=O)O)n1Cc1ccc(NC(=O)c2ccccc2NS(=O)(=O)C(F)(F)F)cc1 [Example 31, 2-Butyl-4-chloro-1-[4-((N-trifluoromethanesulfonyl)anthranilamido)benzyl]imidazole-5-acetic acid]

- pIC50 (AII receptor; Table 25): 6.03
Compound: CCCCc1nc(Cl)c(CC(=O)OC)n1Cc1ccc(NC(=O)c2cccc(NS(=O)(=O)C(F)(F)F)c2)cc1 [Example 33]

- pIC50 (AII receptor; Table 25): 5.96
Compound: CCCCc1nc(Cl)c(Cc2nn[nH]n2)n1Cc1ccc(NC(=O)c2ccccc2NS(=O)(=O)C(F)(F)F)cc1 [Example 52]

- pIC50 (AII receptor; Table 25): 5.92
Compound: CCCCCc1nccn1Cc1ccc(NC(=O)c2ccccc2NS(=O)(=O)C(F)(F)F)cc1 [Example 60]

- pIC50 (AII receptor; Table 25): 5.30
Compound: O=C(Nc1ccc(Cn2ccnc2CC2CCCCC2)cc1)c1ccccc1NS(=O)(=O)C(F)(F)F [Example 61]

- pIC50 (AII receptor; [1]): 5.04
Compound: CCc1nccn1Cc1ccc(NC(=O)c2ccccc2C(=O)O)cc1 [Example 62]

- pIC50 (AII receptor; Table 25): 5.55
Compound: O=C(O)c1ccccc1C(=O)Nc1ccc(Cn2ccnc2CC2CCCCC2)cc1 [Example 71]

- pIC50 (AII receptor; Table 25): 7.70
Compound: CCCc1nc(Cl)c(CO)n1Cc1ccc(-c2ccccc2-c2nn[nH]n2)cc1 [Example 113]

- pIC50 (AII receptor; Table 26): 7.96
Compound: CCC=Cc1nc(Cl)c(CO)n1Cc1ccc(-c2ccccc2-c2nnn[nH]2)cc1 [Example 139]

- pIC50 (AII receptor; [1]): 5.60
Compound: CCCCc1nc(Cl)c(Cn2ccnc2)n1Cc1ccc(C(=O)c2ccccc2C(=O)O)cc1 [Example 205]

- pIC50 (AII receptor; [1]): 5.57
Compound: CCCCc1nc(Cl)c(CNS(=O)(=O)C(F)(F)F)n1Cc1ccc(C(=O)c2ccccc2C(=O)O)cc1 [Example 217, 2-Butyl-1-[4-(2-carboxybenzoyl)benzyl]-4-chloro-5-[(trifluoromethylsulfonamido)methyl]imidazole]

- pIC50 (AII receptor; Table 25): 6.28
Compound: CCCCc1nc(Cl)c(/C=C/C(=O)OCC)n1Cc1ccc(NC(=O)c2ccccc2C(=O)O)cc1 [Example 228, 3-[2-Butyl-4-chloro-1-(4-(2-carboxybenzamido)benzyl)imidazol-5-yl]-propenoic acid ethyl ester, E isomer]

- pIC50 (AII receptor; Table 25): 7.12
Compound: CCCCc1nc(Cl)c(/C=C/COC(C)=O)n1Cc1ccc(NC(=O)c2ccccc2C(=O)O)cc1 [Example 231, 3-[2-Butyl-4-chloro-1-(4-(2-carboxybenzamido)benzyl)imidazol-5-yl]-3-propen-1-ol acetate, E isomer]

- pIC50 (AII receptor; Table 25): 6.70
Compound: CCCCc1nc(Cl)c(/C=C/C(C)O)n1Cc1ccc(NC(=O)c2ccccc2C(=O)O)cc1 (stereo not shown) [Example 243]

- pIC50 (AII receptor; Table 25): 6.96
Compound: CCCCc1nc(Cl)c(CCCOC(C)=O)n1Cc1ccc(NC(=O)c2ccccc2C(=O)O)cc1 [Example 247]
